Data reported in US5863916A, “8-aza, 6-aza and 6,8-diaza-1,4-dihydroquinoxaline-2,3-diones and the use thereof as antagonists for the glycine/NMDA receptor” (priority 1997, dated 1999).

Legend:
[1] = log P (literature); type: physicochemical; settings: from benzene to pyridine N-oxide
[2] = system: strychnine-insensitive glycine sites associated with NMDA receptors; settings: cited from earlier work

Row | difference in log P [1] | Compound | inhibition of [3H]glycine binding [2]
1 | -3.84 | [O-][n+]1ccccc1 [pyridine N-oxide] | –
2 | – | Oc1nc2cccnc2nc1O [pyrido (2,3-b)pyrazine-2,3-diol] | active inhibitor
